Test results reported in ChEMBL document CHEMBL1134300, “Oxindole-based inhibitors of cyclin-dependent kinase 2 (CDK2): design, synthesis, enzymatic activities, and X-ray crystallographic analysis” (J Med Chem, 2001).

Experiments:
[1] = molecular target: Cyclin-dependent kinase 2 (Homo sapiens, UniProt P24941)
Description: Inhibitory activity against human cyclin-dependent kinase 2 (CDK2)

[2] = molecular target: Cyclin-dependent kinase 1 (Homo sapiens, UniProt P06493)
Sequence of Cyclin-dependent kinase 1 (P06493 whole entry): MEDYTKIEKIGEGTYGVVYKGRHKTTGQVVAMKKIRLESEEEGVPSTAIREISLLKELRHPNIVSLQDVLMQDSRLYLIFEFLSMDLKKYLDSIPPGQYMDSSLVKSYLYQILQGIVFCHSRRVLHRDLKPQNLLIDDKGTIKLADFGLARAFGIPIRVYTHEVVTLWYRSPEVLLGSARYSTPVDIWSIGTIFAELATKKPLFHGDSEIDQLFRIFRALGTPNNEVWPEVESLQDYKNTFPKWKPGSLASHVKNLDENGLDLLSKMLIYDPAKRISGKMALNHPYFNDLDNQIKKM
Description: Inhibitory activity against human cyclin-dependent kinase 1 (CDK1)

SMILES	IC50 [1]	IC50 [2]
CC(C)(CO)CNC(=O)c1ccc2c(c1)C(=NNc1ccc(S(N)(=O)=O)cc1)C(=O)N2 [GW301784X]	6.8 nM	60 nM
NS(=O)(=O)c1ccc(N/N=C2\C(=O)Nc3ccc4ncccc4c32)cc1 [GW305178X]	1.6 nM	12 nM
C/C(Nc1ccc(S(N)(=O)=O)cc1)=C1/C(=O)Nc2ccccc21 [GW335962X]	360 nM	2300 nM
CC(C)=Cc1cccc2c1C(=NNc1ccc(S(N)(=O)=O)cc1)C(=O)N2 [GW396574X]	1.5 nM	15 nM
CN(C)c1ccc2c(c1)/C(=C/Nc1ccc(S(N)(=O)=O)cc1)C(=O)N2 [GW416469X]	310 nM	2800 nM
CC(C)COC(=O)c1ccc2c(c1)/C(=C/Nc1ccc(S(N)(=O)=O)cc1)C(=O)N2 [GW416981X]	3 nM	19 nM
NS(=O)(=O)c1ccc(NC=C2C(=O)Nc3ccc4ncsc4c32)cc1 [GW589933X]	2.8 nM	29 nM
